In patent US9211310B2, “Use of a Chinese medicine composition in preparing medicaments for treating secondary prevention of myocardial infarction” (TASLY PHARMACEUTICAL GROUP CO., LTD, priority 2010, dated 2015):

Tested on: patients after acute myocardial infarction
Assay: Life quality, Seattle Angina Questionnaire (SAQ), same clinical trial
Type: in vivo, human
Settings: PP
Description: 3508 patients who were in accordance with the diagnostic standards of AMI for 28 days to 2 years and differentiated as Qi deficiency and blood stagnation syndrome by TCM were studied. 0.5 g Chinese medicine composition prepared by the method of EXAMPLE 1 (Coded as QSYQ) was administrated half an hour after meal, 3 times per day.
There were 19 questions in the Seattle angina questionnaire (SAQ), including 5 parts: physical limitation (PL), anginal stability (AS), anginal frequency (AF), treatment satisfaction (TS) and disease perception (DP). After being given necessary explanation by doctors, the questions were answered independently by patients.
They included the overall survival time, angina pectoris score, TCM symptom score and life quality score, where angina pectoris score, TCM symptom score and life quality score were evaluated at randomization, in 1st, 3rd, 6th, 9th, 12th month after treatment and 18th month after follow-up.
All evaluation results of SAQ were described during the period of observation, and Wilcoxon rank sum test was used for inter-group comparison.
The evaluation results in the SAQ were depicted in different observations, and inter-group comparison was tested by Wilcoxon Rank-sum test.

## CC(=O)Oc1ccccc1C(=O)O [Control group, aspirine]
6 months after treatment
  SAQ Question 1-1 Moderately limited, percent of patients: (0.28%)
  SAQ Question 1-1 Not limited, number of patients: 1368
  SAQ Question 1-1 Not limited, percent of patients: (94.34%)
  SAQ Question 1-1 Other reasons, number of patients: 3
  SAQ Question 1-1 Other reasons, percent of patients: (0.21%)
  SAQ Question 1-1 Severely limited, number of patients: 0
  SAQ Question 1-1 Severely limited, percent of patients: (0.00%)
  SAQ Question 1-1 Slightly limited, number of patients: 53
  SAQ Question 1-1 Slightly limited, percent of patients: (3.66%)
  SAQ Question 1-2 Mildly limited, number of patients: 19
  SAQ Question 1-2 Mildly limited, percent of patients: (1.31%)
  SAQ Question 1-2 Moderately limited, number of patients: 6
  SAQ Question 1-2 Moderately limited, percent of patients: (0.41%)
  SAQ Question 1-2 Not limited, number of patients: 1352
  SAQ Question 1-2 Not limited, percent of patients: (93.24%)
  SAQ Question 1-2 Other reasons, number of patients: 6
  SAQ Question 1-2 Other reasons, percent of patients: (0.41%)
  SAQ Question 1-2 Severely limited, number of patients: 1
  SAQ Question 1-2 Severely limited, percent of patients: (0.07%)
  SAQ Question 1-2 Slightly limited, number of patients: 66
  SAQ Question 1-2 Slightly limited, percent of patients: (4.55%)
  SAQ Question 1-6: Mildly limited, patients (%): (16.24%)
  SAQ Question 1-6: Moderately limited, patients (%): (12.07%)
  SAQ Question 1-6: Not limited, patients (%): (34.35%)
  SAQ Question 1-6: Other reasons, patients (%): (1.11%)
  SAQ Question 1-6: Severely limited, patients (%): (3.19%)
  SAQ Question 1-6: Slightly limited, patients (%): (33.03%)
  SAQ Question 1-7: Mildly limited, patients (%): (21.45%)
  SAQ Question 1-7: Moderately limited, patients (%): (12.58%)
  SAQ Question 1-7: Not limited, patients (%): (14.47%)
  SAQ Question 1-7: Other reasons, patients (%): (3.70%)
  SAQ Question 1-7: Severely limited, patients (%): (14.88%)
  SAQ Question 1-7: Slightly limited, patients (%): (32.91%)
  SAQ Question 1-8: Mildly limited, patients (%): (25.91%)
  SAQ Question 1-8: Moderately limited, patients (%): (16.01%)
  SAQ Question 1-8: Not limited, patients (%): (10.81%)
  SAQ Question 1-8: Other reasons, patients (%): (3.79%)
  SAQ Question 1-8: Severely limited, patients (%): (18.96%)
  SAQ Question 1-8: Slightly limited, patients (%): (24.51%)
6 months after treatment, second line of the scale
  8th question: Mostly satisfied, patients (%): (1.58%)
9 months after treatment
  8th question: Dissatisfied, patients (%): (0.28%)
  8th question: Highly satisfied, patients (%): (23.18%)
  8th question: Mostly dissatisfied, patients (%): (1.18%)
  8th question: Mostly satisfied, patients (%): (58.78%)
  8th question: Partly satisfied, patients (%): (16.59%)
  9th question: Few, patients (%): (38.61%)
  9th question: Mild, patients (%): (32.78%)
  9th question: Moderate, patients (%): (7.01%)
  9th question: Severe, patients (%): (0.35%)
  9th question: Uneffective, patients (%): (21.25%)
  10th question: Dissatisfied, patients (%): (18.81%)
  10th question: Highly satisfied, patients (%): (6.18%)
  10th question: Mostly dissatisfied, patients (%): (19.99%)
  10th question: Mostly satisfied, patients (%): (29.22%)
  10th question: Partly satisfied, patients (%): (25.82%)
  11th question: Continuously worried, patients (%): (2.43%)
  11th question: No worried, patients (%): (6.11%)
  11th question: Occasionally worried, patients (%): (42.40%)
  11th question: Often worried, patients (%): (11.73%)
  11th question: Seldom worried, patients (%): (37.34%)
  SAQ 4th question, 1-2 times per week: % of patients: (15.99%)
  SAQ 4th question, 1-2 times per week: number of patients: 230
  SAQ 4th question, 1-3 times per week: % of patients: (3.41%)
  SAQ 4th question, 1-3 times per week: number of patients: 49
  SAQ 4th question, <1 time per week: % of patients: (14.95%)
  SAQ 4th question, <1 time per week: number of patients: 215
  SAQ 4th question, Not used: % of patients: (61.54%)
  SAQ 4th question, Not used: number of patients: 885
  SAQ 4th question, ≧3 times per week: % of patients: (4.03%)
  SAQ 4th question, ≧3 times per week: number of patients: 58
  SAQ 4th question, ≧4 times per day: % of patients: (0.07%)
  SAQ 4th question, ≧4 times per day: number of patients: 1
  SAQ 5th question, 1-2 times per week: % of patients: (30.04%)
  SAQ 5th question, 1-2 times per week: number of patients: 432
  SAQ 5th question, 1-3 times per day: % of patients: (6.68%)
  SAQ 5th question, 1-3 times per day: number of patients: 96
  SAQ 5th question, <1 time per week: % of patients: (28.65%)
